From patent US20140057895A1, “INDAZOLE- AND PYRROLOPYRIDINE-DERIVATIVE AND PHARMACEUTICAL USE THEREOF” (priority 2011, published 2014)

Experiments:
[1] = biological target: T1, Human 5-HT4 receptor (5-HT4b) (Homo sapiens, UniProt Q13639); assay: Test Example 3: Human 5-HT4 receptor binding assay, membranes of CHO-K1 cells stably expressing 5-HT4b receptors (Table 99); conditions: mean value of each group
T1 construct: expressed in transfected cells; membrane preparation
Protocol: To an assay tube were added 0.1 nM [^3H]-GR113808 {chemical name: [1-[2-(methylsulfonylamino) ethyl]-4-piperidinyl]methyl 1-methylindole-3-carboxylate}, receptor membrane preparations, and Hepes buffer (50 mM, pH 7.4, 4° C., 1 ml) containing test compounds or 30 μM serotonin; and the mixture was incubated at 37° C. for 30 minutes. On quenching the reaction, the mixture was rapidly filtered on whatman GF/B filter, which was presoaked in 0.1% polyethyleneimine for 1 hour, by using Brandel cell Harvester, and washed with ice-cooled 50 mM Tris-HCl (pH 7.7, 4 ml) three times. To the filter after filtration was added a liquid scintillator (Ecoscint), and then a radioactivity was determined by a liquid scintillation counter.
50% Inhibition concentrations (IC50) were determined from inhibition rates of test compounds to specific bindings which were obtained by subtracting nonspecific bindings from total binding amounts of [^3H]-GR113808.
Human 5-HT4 receptor membrane preparations were prepared from CHO-K^1 cells which stably express 5-HT4b receptors, and human 5-HT4 receptor binding assay was carried out in a similar manner as in the guinea pig 5-HT4 receptor binding assay. The following tables show results of serotonin 4 (5-HT4) receptor binding assay. In the following tables, the compounds used in the test are shown in numbers which correspond to the Example numbers above where the preparations of the compounds are described.

[2] = biological target: T2, human 5-HT4b receptor (Homo sapiens, UniProt Q13639); assay: Test Example 4: Serotonin 4 (5-HT4) receptor agonist activity assay, cAMP HTRF in CHO cells (Table 100); type: cell-based; conditions: mean value; for Emax: CHO, 0.25 h, intrinsic activity, maximal activity of 5-HT defined as 100%, read-out: IA (%); for EC50: concentration showing 50% of IA
T2 construct: expressed in transfected cells; host or cells: CHO cells (G418 selection)
Outline: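 Read-out is HTRF cAMP (time-resolved fluorescence 620/665 nm after 1 h RT with cAMP-cryptate and cAMP-d2), from recombinant CHO cells bearing human 5-HT4b treated with compound 15 min at 31° C. in Hanks/HEPES buffer pH 7.4. IA (%) scaled to peak 5-HT effect over 10^−11–10^−7 M; EC50 is concentration giving half that IA.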

T1 sequence (Q13639 whole entry): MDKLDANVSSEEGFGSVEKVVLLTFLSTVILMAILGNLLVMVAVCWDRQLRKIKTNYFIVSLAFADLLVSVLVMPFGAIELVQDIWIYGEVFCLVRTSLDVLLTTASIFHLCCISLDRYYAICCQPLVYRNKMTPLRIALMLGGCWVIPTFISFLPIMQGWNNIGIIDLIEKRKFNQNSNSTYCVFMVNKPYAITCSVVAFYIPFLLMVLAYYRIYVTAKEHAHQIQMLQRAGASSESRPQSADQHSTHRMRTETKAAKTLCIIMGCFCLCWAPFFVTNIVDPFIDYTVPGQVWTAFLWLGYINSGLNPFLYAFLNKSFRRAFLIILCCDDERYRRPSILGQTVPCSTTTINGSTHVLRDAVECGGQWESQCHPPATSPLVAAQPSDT
T2 sequence (Q13639 whole entry): as above

| Compound | IC50 [1] | Emax [2] | EC50 [2] |
| --- | --- | --- | --- |
| CC(C)c1nn(-c2noc([C@H]3C[C@@H](NCC4CCCO4)C3)n2)c2c(F)cccc12 (relative stereo) [Example 596, cis-3-{3-[7-fluoro-3-(propan-2-yl)-1H-indazol-1-yl]-1,2,4-oxadiazol-5-yl}-N-(tetrahydrofuran-2-ylmethyl)cyclobutanamine] | < 20 nM | 82% | 4.1 nM |
| CC(C)c1nn(-c2noc([C@H]3CC[C@@H](NC4CCN(S(C)(=O)=O)C4)CC3)n2)c2c(F)cccc12 (relative stereo) [Example 616, N-(cis-4-{3-[7-fluoro-3-(propan-2-yl)-1H-indazol-1-yl]-1,2,4-oxadiazol-5-yl}cyclohexyl)-1-(methylsulfonyl)pyrrolidin-3-amine] | < 20 nM | 105% | 13 nM |
| CC(=O)N1CCC(N2C3CCC2CC(c2nc(-n4nc(C(C)C)c5cccc(F)c54)no2)C3)CC1 (stereo not shown) [Example 419, 1-{4-[3-{3-[7-fluoro-3-(propan-2-yl)-1H-indazol-1-yl]-1,2,4-oxadiazol-5-yl}-8-azabicyclo[3.2.1]oct-8-yl]piperidin-1-yl}ethanone] | 63.8 nM | 110% | 10.4 nM |
| CC(=O)N1CCC(C)(N2CCC(c3nc(-n4nc(C(C)C)c5cccc(F)c54)no3)CC2)CC1 [Example 487, 1-(4-{3-[7-fluoro-3-(propan-2-yl)-1H-indazol-1-yl]-1,2,4-oxadiazol-5-yl}-4′-methyl-1,4′-bipiperidin-1′-yl)ethanone] | < 20 nM | 70% | 3.2 nM |
| CC(C)c1nn(-c2noc(C3CCN(C4(C)CCN(S(C)(=O)=O)CC4)CC3)n2)c2c(F)cccc12 [Example 488, 4-{3-[7-fluoro-3-(propan-2-yl)-1H-indazol-1-yl]-1,2,4-oxadiazol-5-yl}-4′-methyl-1′-(methylsulfonyl)-1,4′-bipiperidine] | < 20 nM | 106% | 2.9 nM |
| CC(C)c1nn(-c2noc(C3CCN(C4(C)CCN(C(=O)N(C)C)CC4)CC3)n2)c2c(F)cccc12 [Example 489, 4-{3-[7-fluoro-3-(propan-2-yl)-1H-indazol-1-yl]-1,2,4-oxadiazol-5-yl}-N,N,4′-trimethyl-1,4′-bipiperidine-1′-carboxamide] | < 20 nM | 104% | 2.5 nM |
| COCC(=O)N1CCC(C)(N2CCC(c3nc(-n4nc(C(C)C)c5cccc(F)c54)no3)CC2)CC1 [Example 490, 1-(4-{3-[7-fluoro-3-(propan-2-yl)-1H-indazol-1-yl]-1,2,4-oxadiazol-5-yl}-4′-methyl-1,4′-bipiperidin-1′-yl)-2-methoxyethanone] | < 20 nM | 111% | 1.6 nM |
| CCc1nn(-c2noc(C3CCN(C4(C)CCN(C(C)=O)CC4)CC3)n2)c2c(F)cccc12 [Example 491, 1-{4-[3-(3-ethyl-7-fluoro-1H-indazol-1-yl)-1,2,4-oxadiazol-5-yl]-4′-methyl-1,4′-bipiperidin-1′-yl}ethanone] | < 20 nM | 91% | 4.4 nM |
| CCc1nn(-c2noc(C3CCN(C4(C)CCN(S(C)(=O)=O)CC4)CC3)n2)c2c(F)cccc12 [Example 492, 4-[3-(3-ethyl-7-fluoro-1H-indazol-1-yl)-1,2,4-oxadiazol-5-yl]-4′-methyl-1′-(methylsulfonyl)-1,4′-bipiperidine] | < 20 nM | 78% | 2.9 nM |
| CCc1nn(-c2noc(C3CCN(C4(C)CCN(C(=O)N(C)C)CC4)CC3)n2)c2c(F)cccc12 [Example 493, 4-[3-(3-ethyl-7-fluoro-1H-indazol-1-yl)-1,2,4-oxadiazol-5-yl]-N,N,4′-trimethyl-1,4′-bipiperidine-1′-carboxamide] | < 20 nM | 75% | 1.5 nM |
| CCc1nn(-c2noc(C3CCN(C4(C)CCN(C(=O)COC)CC4)CC3)n2)c2c(F)cccc12 [Example 494, 1-{4-[3-(3-ethyl-7-fluoro-1H-indazol-1-yl)-1,2,4-oxadiazol-5-yl]-4′-methyl-1,4′-bipiperidin-1′-yl}-2-methoxyethanone] | < 20 nM | 72% | 2.1 nM |
| CC(C)c1nn(-c2noc(C[C@H]3CCN(C4CCN(S(C)(=O)=O)CC4)C3)n2)c2c(F)cccc12 [Example 496, 7-fluoro-1-[5-({(3R)-1-[1-(methylsulfonyl)piperidin-4-yl]pyrrolidin-3-yl}methyl)-1,2,4-oxadiazol-3-yl]-3-(propan-2-yl)-1H-indazole] | < 20 nM | 70% | 2.2 nM |
| CC(=O)N1CCC[C@H]1CN1CC[C@H](Cc2nc(-n3nc(C(C)C)c4cccc(F)c43)no2)C1 [Example 497, 1-[(2S)-2-{[(3R)-3-({3-[7-fluoro-3-(propan-2-yl)-1H-indazol-1-yl]-1,2,4-oxadiazol-5-yl}methyl)pyrrolidin-1-yl]methyl}pyrrolidin-1-yl]ethanone] | 76.1 nM | 88% | 5.8 nM |
| CC(C)c1nn(-c2noc(C[C@H]3CCN(C[C@@H]4CCCN4S(C)(=O)=O)C3)n2)c2c(F)cccc12 [Example 498, 7-fluoro-1-(5-{[(3R)-1-{[(2S)-1-(methylsulfonyl)pyrrolidin-2-yl]methyl}pyrrolidin-3-yl]methyl}-1,2,4-oxadiazol-3-yl)-3-(propan-2-yl)-1H-indazole] | < 20 nM | 36% | 3.4 nM |
| CC(=O)N1CCC[C@@H]1CN1CC[C@H](Cc2nc(-n3nc(C(C)C)c4cccc(F)c43)no2)C1 [Example 499, 1-[(2R)-2-{[(3R)-3-({3-[7-fluoro-3-(propan-2-yl)-1H-indazol-1-yl]-1,2,4-oxadiazol-5-yl}methyl)pyrrolidin-1-yl]methyl}pyrrolidin-1-yl]ethanone] | 48.6 nM | 82% | 7.8 nM |
| CC(C)c1nn(-c2noc(C[C@H]3CCN(C[C@H]4CCCN4S(C)(=O)=O)C3)n2)c2c(F)cccc12 [Example 500, 7-fluoro-1-(5-{[(3R)-1-{[(2R)-1-(methylsulfonyl)pyrrolidin-2-yl]methyl}pyrrolidin-3-yl]methyl}-1,2,4-oxadiazol-3-yl)-3-(propan-2-yl)-1H-indazole] | < 20 nM | 90% | 14.4 nM |
| CC(=O)N1CC(CN2CC[C@H](Cc3nc(-n4nc(C(C)C)c5cccc(F)c54)no3)C2)C1 [Example 501, 1-(3-{[(3R)-3-({3-[7-fluoro-3-(propan-2-yl)-1H-indazol-1-yl]-1,2,4-oxadiazol-5-yl}methyl)pyrrolidin-1-yl]methyl}azetidin-1-yl)ethanone] | < 20 nM | 84% | 3.5 nM |
| CC(C)c1nn(-c2noc(C[C@H]3CCN(CC4CN(S(C)(=O)=O)C4)C3)n2)c2c(F)cccc12 [Example 502, 7-fluoro-1-(5-{[(3R)-1-{[1-(methylsulfonyl)azetidin-3-yl]methyl}pyrrolidin-3-yl]methyl}-1,2,4-oxadiazol-3-yl)-3-(propan-2-yl)-1H-indazole] | < 20 nM | 70% | 3.5 nM |
| COc1nn(-c2noc(C3CCN(C4CCN(C(C)=O)CC4)CC3)n2)c2c(F)cccc12 [Example 624, 1-{4-[3-(7-fluoro-3-methoxy-1H-indazol-1-yl)-1,2,4-oxadiazol-5-yl]-1,4′-bipiperidin-1′-yl}ethanone] | < 20 nM |  |  |
